Test results as given in US5712300A, “Hydroxamic acid derivatives useful for the treatment of diseases related to connective tissue degradation” (priority 1997, dated 1998).

Experiments:
Stromelysin = Stromelysin (Homo sapiens, UniProt P08254); assay: MMP inhibition by particle concentration fluorescence technique (stromelysin); format: biochemical; conditions: pH 7.5; 15 min enzyme preincubation; substrate 1-3 h at room temperature; read-out: MMP Inhibition Constants, Stromelysin Ki
Source text: An inhibitor binds to MMP enzymes prevents the degradation of a substrate of stromelysin, gelatinase, or collagenase. The substrate is attached with a fluorescein and a biotin. The intact substrate then binds to an avidin-coated particle via the biotin moiety. Once the particle is washed and dried, a fluorescent signal is generated since the fluorescent group is attached to the particle. Without an inhibitor present, the substrate is degraded by MMP enzymes and the fluorescein group is removed, therefore, no fluorescent signal can be detected. […] Serial two-fold dilutions of each compound are prepared. A concentrated, activated enzyme solution is transferred into each plate of the testing compounds, and the mixture is incubated at room temperature for 15 minutes.

Gelatinase = assay: MMP inhibition by particle concentration fluorescence technique (gelatinase); format: biochemical; conditions: pH 7.5; 15 min enzyme preincubation; substrate 1-3 h at room temperature; read-out: MMP Inhibition Constants, Gelatinase Ki
Procedure: Inhibitory activity is evaluated in one or more of the MMP enzymes (stromelysin, gelatinase, and collagenase) in vitro using a particle concentration fluorescence techniques. An inhibitor binds to MMP enzymes prevents the degradation of a substrate of stromelysin, gelatinase, or collagenase. The substrate is attached with a fluorescein and a biotin. The intact substrate then binds to an avidin-coated particle via the biotin moiety. Once the particle is washed and dried, a fluorescent signal is generated since the fluorescent group is attached to the particle. Without an inhibitor present, the substrate is degraded by MMP enzymes and the fluorescein group is removed, therefore, no fluorescent signal can be detected. Testing compounds are dissolved in DMSO to the desired concentration, then the solutions are diluted to 1:5 with MMP buffer (50 mM Tris-HCl, pH 7.5; 150 mM NaCl; 0.02% NAN3). Serial two-fold dilutions of each compound are prepared. A concentrated, activated enzyme solution is transferred into each plate of the testing compounds, and the mixture is incubated at room temperature for 15 minutes. Thawed MMP substrate is then added into all plates, and the plates are incubate in the dark for 1-3 hours at room temperature. At this point, the substrate mixture is reacted with 0.1% avidin-coated polystyrene particles.

Stromelysin, sequence (P08254 100-477): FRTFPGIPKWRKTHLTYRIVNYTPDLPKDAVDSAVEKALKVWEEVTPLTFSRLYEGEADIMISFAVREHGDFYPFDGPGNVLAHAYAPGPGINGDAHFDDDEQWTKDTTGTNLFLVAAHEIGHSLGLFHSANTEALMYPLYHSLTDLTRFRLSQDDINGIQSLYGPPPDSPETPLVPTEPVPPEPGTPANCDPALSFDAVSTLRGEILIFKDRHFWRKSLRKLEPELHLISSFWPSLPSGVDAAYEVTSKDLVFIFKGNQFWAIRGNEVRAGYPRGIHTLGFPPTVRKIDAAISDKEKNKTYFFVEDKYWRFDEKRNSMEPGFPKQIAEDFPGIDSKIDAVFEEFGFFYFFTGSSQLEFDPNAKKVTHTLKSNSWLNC

Ki (Stromelysin) [nM]	Ki (Gelatinase) [nM]	Compound
334	280	CC(C)C[C@@]1([C@@H](CCN2C(=O)c3c(F)ccc(F)c3C2=O)C(=O)NO)CCN(CCc2ccccc2)C1=O (relative stereo) [Example 13, α-[2-(4,7-Difluoro-1,3-dihydro-1,3-dioxo-2H-isoindol-2-yl)ethyl]-N-hydroxy-3-(2-methylpropyl)-2-oxo-1-(2-phenylethyl)-3-pyrrolidineacetamide]
491	82	CC(C)C[C@@]1([C@@H](CCN2C(=O)c3cc4ccccc4cc3C2=O)C(=O)NO)CCN(CCc2ccccc2)C1=O (relative stereo) [Example 6]
2770	2470	CC(C)CC1(C(CSc2cccs2)C(=O)NO)CCN(CCc2ccccc2)C1=O (stereo not drawn) [Example 19, N-Hydroxy-3-(2-methylpropyl)-2-oxo-1-(2-phenylethyl)-α-[2-(2-thienylthio)methyl]-3-pyrrolidineacetamide]
6040		CC(C)C[C@@]1([C@@H](CCN2C(=O)c3cccc([N+](=O)[O-])c3C2=O)C(=O)NO)CCN(CCc2ccccc2)C1=O (relative stereo) [Example 10, N-Hydroxy-3-(2-methylpropyl)-α-[2-(4-nitro-1,3-dihydro-1,3-dioxo-2H-isoindol-2-yl)ethyl]-2-oxo-1-(2-phenylethyl)-3-pyrrolidineacetamide]
116	31	CC(C)C[C@@]1([C@@H](CCN2Cc3cc(F)c(F)cc3C2=O)C(=O)NO)CCN(CCc2ccccc2)C1=O (relative stereo) [Example 85, 5,6-Difluoro-1,3-dihydro-N-hydroxy-α-[3-(2-methylpropyl)-2-oxo-1-(2-phenylethyl)-3-pyrrolidinyl]-1-oxo-2H-isoindole-2-butanamide]
	3000	CC(C)C[C@@]1([C@@H](CCNS(=O)(=O)c2ccc(F)cc2)C(=O)NO)CCN(CCc2ccccc2)C1=O [Example 84, [R-(R*,S*)]-α-[2-[[(4-Fluorophenyl)sulfonyl]amino]ethyl]-N-hydroxy-3-(2-methylpropyl)-2-oxo-1-(2-phenylethyl)-3-pyrrolidineacetamide]
	1400	CC(C)C[C@@]1([C@@H](CCNS(=O)(=O)c2ccc(F)cc2)C(=O)NO)CCN(CCc2ccccc2)C1=O (relative stereo) [Example 81, α-[2-[[(4-Fluorophenyl)sulfonyl]amino]ethyl]-N-hydroxy-3-(2-methylpropyl)-2-oxo-1-(2-phenylethyl)-3-pyrrolidineacetamide]
1470	3040	CC(C)C[C@@]1([C@@H](CCCSc2cccs2)C(=O)NO)CCN(CCc2ccccc2)C1=O (relative stereo) [Example 18]
120	312	CC(C)C[C@@]1([C@@H](CCN2C(=O)c3cccc(F)c3C2=O)C(=O)NO)CCN(CCc2ccccc2)C1=O (relative stereo) [Example 12, α-[2-(4-Fluoro-1,3-dihydro-1,3-dioxo-2H-isoindol-2-yl)ethyl]-N-hydroxy-3-(2-methylpropyl)-2-oxo-1-(2-phenylethyl)-3-pyrrolidineacetamide]
23	2.9	CNC(=O)[C@H](Cc1ccccc1)N1CC[C@@](CC(C)C)([C@H](CCN2C(=O)c3ccccc3C2=O)C(=O)NO)C1=O [Example 58, [3S-[1(R*),3R*(R*)]]-α^3-[2-(1,3-Dihydro-1,3-dioxo-2H-isoindol-2-yl)ethyl]-N^3-hydroxy-N^1-methyl-3-(2-methylpropyl)-2-oxo-α^1-(phenylmethyl)-1,3-pyrrolidinediacetamide]
318	146	CC(C)C[C@@]1([C@@H](CCN2Cc3cc(F)c(F)cc3C2=O)C(=O)NO)CCN(CCc2ccccc2)C1=O [Example 89, [R-(R*,S*)]-5,6-Difluoro-1,3-dihydro-N-hydroxy-α-[3-(2-methylpropyl)-2-oxo-1-(2-phenylethyl)-3-pyrrolidinyl]-1-oxo-2H-isoindole-2-butanamide]
3120		CC(C)CC1(CC(=O)NO)CC(=O)N(CCc2ccccc2)C1=O (stereo not shown) [Example 35, N-Hydroxy-3-(2-methylpropyl)-2,5-dioxo-1-(2-phenylethyl)-3-pyrrolidineacetamide]
7000		CC(C)C[C@@]1([C@@H](CCN2C(=O)c3c(F)c(F)c(F)c(F)c3C2=O)C(=O)NO)CCN(Cc2ccccc2)C1=O (relative stereo) [Example 24, N-Hydroxy-3-(2-methylpropyl)-2-oxo-1-(phenylmethyl)-α-[2-(4,5,6,7-tetrafluoro-1,3-dihydro-1,3-dioxo-2H-isoindol-2-yl)ethyl]-3-pyrrolidineacetamide]
2400	44000	CC(C)CC1(CC(=O)NO)C(=O)N(CCc2ccccc2)C(=O)N1C (stereo not shown) [Example 36, N-Hydroxy-3-methyl-4-(2-methylpropyl)-2,5-dioxo-1-(2-phenylethyl)-4-imidazolidineacetamide]
1140	734	CC(C)C[C@@]1([C@@H](CCN2C(=O)c3cc(Cl)c(Cl)cc3C2=O)C(=O)NO)CCN(CCc2ccccc2)C1=O (relative stereo) [Example 8, α-[2-(5,6-Dichloro-1,3-dihydro-1,3-dioxo-2H-isoindol-2-yl)ethyl]-N-hydroxy-3-(2-methylpropyl)-2-oxo-1-(2-phenylethyl)-3-pyrrolidineacetamide]
4740		CC(C)CC1(CC(=O)NO)NC(=O)N(CCc2ccccc2)C1=O (stereo not shown) [Example 37, N-Hydroxy-4-(2-methylpropyl)-2,5-dioxo-1-(2-phenylethyl)-4-imidazolidineacetamide]
2220	4090	CC(C)C[C@@]1([C@@H](CCSc2cccs2)C(=O)NO)CCN(CCc2ccccc2)C1=O (relative stereo) [Example 17, N-Hydroxy-3-(2-methylpropyl)-2-oxo-1-(2-phenylethyl)-α-[2-(2-thienylthio)ethyl]-3-pyrrolidineacetamide]
713	998	CNC(=O)CN1CC[C@@](CC(C)C)([C@@H](CCN2C(=O)c3ccccc3C2=O)C(=O)NO)C1=O (relative stereo) [Example 26, α^3-[2-(1,3-Dihydro-1,3-dioxo-2H-isoindol-2-yl)ethyl]-N^3-hydroxy-N^1-methyl-3-(2-methylpropyl)-2-oxo-1,3-pyrrolidinediacetamide]
1270	1420	CC(C)C[C@@]1([C@@H](CCN2C(=O)c3c(F)c(F)c(F)c(F)c3C2=O)C(=O)NO)CCN(CCc2ccccc2)C1=O (relative stereo) [Example 7, N-Hydroxy-3-(2-methylpropyl)-2-oxo-1-(2-phenylethyl)-α-[2-(4,5,6,7-tetrafluoro-1,3-dihydro-1,3-dioxo-2H-isoindol-2-yl)ethyl]-3-pyrrolidineacetamide]
11000	16500	CNC(=O)CN1CC[C@@](CC(C)C)([C@@H](CCN2C(=O)c3c(F)c(F)c(F)c(F)c3C2=O)C(=O)NO)C1=O (relative stereo) [Example 27, N^3 -Hydroxy-N^1-methyl-3-(2-methylpropyl)-2-oxo-α^3-[2-(4,5,6,7-tetrafluoro-1,3-dihydro-1,3-dioxo-2H-isoindol-2-yl)ethyl]-1,3-pyrrolidinediacetamide]
